Values after ≈ are worked out from the molar mass of the structure shown. Where two headings read alike, the source gives them in different places.
Experiments:
[1] = AUC and Cmax, plasma concentration by HPLC after repeated oral doses; format: in vivo; settings: male, human, Japanese healthy adult males, oral 75 mg once daily for seven days, day 7, plasma
Method: Six Japanese healthy adult males received oral doses of 75 mg compound D once daily for seven consecutive days. The plasma concentration of compound D was measured by the HPLC method, and the pharmacokinetic parameters were calculated.

[2] = test system: S. pneumoniae ATCC49619; assay: microbe, parasite or virus in culture; format: cell-based; settings: Streptococcus pneumoniae
[3] = test system: S. aureus MS5935 2nd; assay: microbe, parasite or virus in culture; format: cell-based; settings: Staphylococcus aureus, MS59352ND
[4] = Clinical efficacy (cure rate) in patients with community-acquired pneumonia; format: in vivo, human; settings: oral 75 mg once daily for 7 days, seven days after treatment completion
Method: We investigated efficacy of compound D for the patients with community-acquired pneumonia. 50 patients with community-acquired pneumonia were orally administered 75 mg of compound D once daily for 7 days. The clinical efficacy (cure rate) was evaluated at seven days after treatment completion. The clinical trial was performed in accordance with a part of evaluation on patients with community-acquired pneumonia (pp. 34 to 38) in “general guidelines for the evaluation of new antimicrobial agents for the treatment of respiratory tract infections (second version).”

[5] = test system: S. aureus MS5935 1st; assay: microbe, parasite or virus in culture; format: cell-based; settings: Staphylococcus aureus, MS59351ST
[6] = test system: S. pneumoniae ATCC49619; assay: Frequency of development of resistant bacteria; format: cell-based, Streptococcus pneumoniae; settings: for FREQUENCY OF DEVELOPMENT OF RESISTANT BACTERIA (AVERAGE OF TWO MEASURED VALUES): about 70 hours
Method: S. aureus ATCC29213 is Staphylococcus aureus, S. pneumoniae ATCC49619 is Streptococcus pneumoniae, and E. coli ATCC25922 is Escherichia coli. […]
The frequency of development of resistant bacteria was calculated by dividing the number of colonies developed on an agar medium having each drug concentration by the number of initially inoculated bacteria.

[7] = test system: S. aureus MS5935; assay: Antibacterial activity against quinolone-resistant strain in vitro, CLSI dilution; format: cell-based; settings: Staphylococcus aureus; S. aureus MS5935, PARENT STRAIN, gyrA None, grlA None
[8] = test system: S. pneumoniae GF9821; assay: microbe, parasite or virus in culture; format: cell-based; settings: Streptococcus pneumoniae
[9] = test system: S. aureus ATCC29213; assay: MIC of strain used for resistance frequency test; format: cell-based; settings: Staphylococcus aureus; S. aureus ATCC29213; read-out: MIC
[10] = test system: S. aureus MS5935 gyrA mutant; assay: microbe, parasite or virus in culture; format: cell-based; settings: Staphylococcus aureus
[11] = Concentration in tissue (human, oral administration): epithelial lining fluid, alveolar macrophages, plasma; format: in vivo; settings: male, oral single dose 75 mg; for Kp: over 1 to 24 hours
Method: Concentration of compound D in lung tissue (epithelial lining fluid and alveolar macrophages) and plasma was measured to investigate intrapulmonary distribution of compound D after oral single administration of this drug, with reference to a method in Document (Antimicrobial Agents and Chemotherapy, February 2010, pp. 866-870).
The measurement was as follows. Healthy adult male volunteers were given oral single dose of compound D (75 mg). The bronchoalveolar lavage fluid and blood samples were collected from the subjects at 1, 2, 4, 6, and 24 hours after the administration. The collection of the fluid and blood samples was carried out at each time point for six subjects. The bronchoalveolar lavage fluid was centrifuged to separate from epithelial lining fluid and alveolar macrophages for measurement of the drug concentration. The concentrations of compound D in lung tissue and plasma were measured by LC/MS/MS.

[12] = test system: S. pneumoniae NF9884; assay: microbe, parasite or virus in culture; format: cell-based; settings: Streptococcus pneumoniae
[13] = human, 2.5 to 3.5 hours after administration; cited from earlier work
[14] = consecutive administration, daily dose of 400 mg; cited from earlier work
[15] = 400 mg, patients with bacterial pneumonia; cited from earlier work
[16] = S. pneumoniae ATCC49619, 4 × MIC
[17] = S. pneumoniae ATCC49619, 8 × MIC
[18] = S. pneumoniae ATCC49619, 16 × MIC
[19] = alveolar macrophages, read-out: TISSUE DISTRIBUTION RATIO, ALVEOLAR MACROPHAGES
[20] = epithelial lining fluid, read-out: TISSUE DISTRIBUTION RATIO, ALVEOLAR EPITHELIAL LINING FLUID

## COc1c(N2C[C@H](CNC3CC3)[C@H](F)C2)c(F)cc2c(=O)c(C(=O)O)cn(CCF)c12.Cl [Compound D, 7-[(3S,4S)-3-{(cyclopropylamino)methyl}-4-fluoropyrrolidine-1-yl]-6-fluoro-1-(2-fluoroethyl)-8-methoxy-4-oxo-1,4-dihydroquinoline-3-carboxylic acid hydrochloride]
[1]; read-out: area under the curve (AUC)
  AUC: 20600 ng·h/mL
[1]; read-out: maximum drug concentration (Cmax)
  Cmax: 998 ng/mL
[2]
  MIC: 0.06 µg/mL
[3]
  MIC: 0.125 µg/mL
[4]
  clinical efficacy (cure rate): 90.0%
[5]
  MIC: 0.03 µg/mL
[6]; S. pneumoniae ATCC49619, 4 to 16 × MIC
  development of resistant bacteria (in words): not observed
[6]; [16]
  FREQUENCY OF DEVELOPMENT OF RESISTANT BACTERIA (AVERAGE OF TWO MEASURED VALUES): <1.1 × 10^−8
[6]; [17]
  FREQUENCY OF DEVELOPMENT OF RESISTANT BACTERIA (AVERAGE OF TWO MEASURED VALUES): <1.1 × 10^−8
[6]; [18]
  FREQUENCY OF DEVELOPMENT OF RESISTANT BACTERIA (AVERAGE OF TWO MEASURED VALUES): <1.1 × 10^−8
[7]
  MIC: 0.015 µg/mL
[8]
  MIC: 0.125 µg/mL
[9]
  MIC: 0.008 µg/mL
[10]
  MIC: 0.03 µg/mL
[11]; [19]
  Kp at 1 h: 31.9
  Kp at 2 h: 18.5
  Kp at 4 h: 21.9
  Kp at 6 h: 56.4
  Kp at 24 h: 38
[11]; alveolar macrophages, read-out: tissue distribution ratio in alveolar macrophages, range
  Kp: 18.5 to 56.4
[11]; [20]
  Kp at 1 h: 22.5
  Kp at 2 h: 18.4
  Kp at 4 h: 16.5
  Kp at 6 h: 15.2
  Kp at 24 h: 15
[11]; epithelial lining fluid, read-out: tissue distribution ratio in epithelial lining fluid, range
  Kp: 15 to 22.5
[12]
  MIC: 0.125 µg/mL

## C[C@H]1NCc2cc(-c3ccc4c(=O)c(C(=O)O)cn(C5CC5)c4c3OC(F)F)ccc21 [GRNX, garenoxacin]
[2]
  MIC: 0.06 µg/mL (≈ 0.141 µM)
[3]
  MIC: 2 µg/mL (≈ 4.69 µM)
[13]
  tissue distribution ratio in the alveolar macrophages: 11.15±8.16
  tissue distribution ratio in the epithelial lining fluid: 0.95±0.41
[5]
  MIC: 0.03 µg/mL (≈ 0.0704 µM)
[6]; [16]
  FREQUENCY OF DEVELOPMENT OF RESISTANT BACTERIA (AVERAGE OF TWO MEASURED VALUES): <1.1 × 10^−8
[6]; [17]
  FREQUENCY OF DEVELOPMENT OF RESISTANT BACTERIA (AVERAGE OF TWO MEASURED VALUES): <1.1 × 10^−8
[6]; [18]
  FREQUENCY OF DEVELOPMENT OF RESISTANT BACTERIA (AVERAGE OF TWO MEASURED VALUES): <1.1 × 10^−8
[7]
  MIC: 0.015 µg/mL (≈ 0.0352 µM)
[8]
  MIC: 0.25 µg/mL (≈ 0.586 µM)
[14]
  AUC: 110.9 µg·h/mL
  Cmax: 11.06 µg/mL
[9]
  MIC: 0.015 µg/mL
[10]
  MIC: 0.06 µg/mL (≈ 0.141 µM)
[15]
  clinical efficacy rate: 94.9%
[12]
  MIC: 0.125 µg/mL (≈ 0.293 µM)
